The record followed here is patent US10906915B2, “Substituted pyrazoloazepin-4-ones and their use as phosphodiesterase inhibitors” (LEO Pharma A/S, priority 2016, dated 2021).

Chain of human PDE4D catalytic domain (Q08499 380-740 limits assumed): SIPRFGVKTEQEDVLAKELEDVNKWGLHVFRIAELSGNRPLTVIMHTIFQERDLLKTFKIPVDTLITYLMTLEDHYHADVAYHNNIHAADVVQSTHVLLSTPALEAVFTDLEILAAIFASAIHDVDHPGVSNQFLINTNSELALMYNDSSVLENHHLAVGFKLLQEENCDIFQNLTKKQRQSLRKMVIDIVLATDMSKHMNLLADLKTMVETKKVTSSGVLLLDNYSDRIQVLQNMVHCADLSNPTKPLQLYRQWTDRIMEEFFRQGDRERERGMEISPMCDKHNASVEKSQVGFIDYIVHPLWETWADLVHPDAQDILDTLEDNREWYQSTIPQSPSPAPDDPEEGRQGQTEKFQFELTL

This assay has as its target human PDE4D catalytic domain (UniProt no. Q08499) (Homo sapiens (Human), UniProt Q08499). As to the kind of experiment: PDE4 assay (TR-FRET, FAM-cAMP cleavage). The format is biochemical. The settings on record: human PDE4D catalytic domain; molar concentration giving 50% inhibition of substrate cleavage; read-out: PDE4 IC50 range. The procedure:
The human PDE4D catalytic domain (UniProt no. Q08499 [[…]]) was incubated with a mixture of non-labelled cAMP (cyclic adenosine monophosphate) and fluorescein amidite (FAM) conjugated cAMP and titrated test or reference compound. Following brief incubation the enzymatic reaction was stopped by addition of binding buffer containing nanoparticles with immobilized trivalent metal ions capable of binding 1) AMP phospho groups and 2) terbium (Tb) donor fluorophores. Subsequent excitation of the Tb donor triggers time-resolved FRET to adjacent FAM acceptor molecules resulting in light emission. In the presence of a PDE4 inhibitor, AMP generation was reduced resulting in a lower fluorescence signal. The cAMP phosphodiester is not bound by the detection system.
The results were calculated as the molar concentrations resulting in 50% inhibition of the substrate cleavage compared to controls samples, and are expressed as a range of IC50 (nM).
Background: In TR-FRET formats the signal depends on donor and acceptor labels being close together.
For orientation: IC50 means the concentration that inhibits the measured activity by half. As for `CCc1nn(CCCOC(=O)C2CC(F)(F)C2)c2c1C(=O)NCC1(CCOCC1)C2` [Example 14, 3-(3-ethyl-4-oxo-spiro[6,8-dihydro-5H-pyrazolo[4,3-c]azepine-7,4’-tetrahydropyran]-1-yl)propyl 3,3-difluorocyclobutane-carboxylate], the half-inhibitory concentration (IC50) is 0.1 to 0.5 µM.

As to `CCc1nn(CCCOC(=O)c2cccc(C)c2)c2c1C(=O)NCC1(CCOCC1)C2` [Example 15, 3-(3-ethyl-4-oxo-spiro[6,8-dihydro-5H-pyrazolo[4,3-c]azepine-7,4′-tetrahydropyran]-1-yl)propyl 3-methylbenzoate], the IC50 is less than 0.1 µM.

With `CCc1nn(CCCOC(=O)c2ccccc2C)c2c1C(=O)NCC1(CCOCC1)C2` [Example 16, 3-(3-ethyl-4-oxo-spiro[6,8-dihydro-5H-pyrazolo[4,3-c]azepine-7,4′-tetrahydropyran]-1-yl)propyl 2-methylbenzoate], the concentration for half-maximal inhibition (IC50) was less than 0.1 µM.

As to `CCc1nn(CCCOC(=O)c2ccccc2O)c2c1C(=O)NCC1(CCOCC1)C2` [Example 17, 3-(3-ethyl-4-oxo-spiro[6,8-dihydro-5H-pyrazolo[4,3-c]azepine-7,4′-tetrahydropyran]-1-yl)propyl 2-hydroxybenzoate], the 50% inhibitory concentration (IC50) is less than 0.1 µM.

Regarding `CCc1nn(CCCOC(=O)c2cccc(F)c2)c2c1C(=O)NCC1(CCOCC1)C2` [Example 18, 3-(3-ethyl-4-oxo-spiro[6,8-dihydro-5H-pyrazolo[4,3-c]azepine-7,4′-tetrahydropyran]-1-yl)propyl 3-fluorobenzoate], the IC50 was less than 0.1 µM.

With `CCc1nn(CCCOC(=O)c2ccccc2F)c2c1C(=O)NCC1(CCOCC1)C2` [Example 19, 3-(3-ethyl-4-oxo-spiro[6,8-dihydro-5H-pyrazolo[4,3-c]azepine-7,4′-tetrahydropyran]-1-yl)propyl 2-fluorobenzoate], the IC50 was less than 0.1 µM.

Turning to `CCc1nn(CCCOC(=O)c2ccc(F)cc2)c2c1C(=O)NCC1(CCOCC1)C2` [Example 20, 3-(3-ethyl-4-oxo-spiro[6,8-dihydro-5H-pyrazolo[4,3-c]azepine-7,4′-tetrahydropyran]-1-yl)propyl 4-fluorobenzoate], the IC50 is less than 0.1 µM.

`CCc1nn(CCCOC(=O)[C@H]2CC[C@@H](O)CC2)c2c1C(=O)NCC1(CCOCC1)C2` [Example 21, 3-(3-ethyl-4-oxo-spiro[6,8-dihydro-5H-pyrazolo[4,3-c]azepine-7,4′-tetrahydropyran]-1-yl)propyl cis-4-hydroxycyclohexane-carboxylate]: the half-inhibitory concentration (IC50) is 0.1 to 0.5 µM.

Regarding `CCc1nn(CCCOC(=O)[C@H]2CC[C@H](O)CC2)c2c1C(=O)NCC1(CCOCC1)C2` [Example 22, 3-(3-ethyl-4-oxo-spiro[6,8-dihydro-5H-pyrazolo[4,3-c]azepine-7,4′-tetrahydropyran]-1-yl)propyl trans-4-hydroxycyclohexane-carboxylate], the 50% inhibitory concentration (IC50) fell in the range of 0.1 to 0.5 µM.

`CCc1nn(CCCOC(=O)c2cccc(C#N)c2)c2c1C(=O)NCC1(CCOCC1)C2` [Example 23, 3-(3-ethyl-4-oxo-spiro[6,8-dihydro-5H-pyrazolo[4,3-c]azepine-7,4′-tetrahydropyran]-1-yl)propyl 3-cyanobenzoate]: the 50% inhibitory concentration (IC50) was less than 0.1 µM.

With `CCc1nn(CCCOC(=O)c2ccc(C#N)cc2)c2c1C(=O)NCC1(CCOCC1)C2` [Example 24, 3-(3-ethyl-4-oxo-spiro[6,8-dihydro-5H-pyrazolo[4,3-c]azepine-7,4′-tetrahydropyran]-1-yl)propyl 4-cyanobenzoate], the IC50 is less than 0.1 µM.

Consider `CCc1nn(CCCOC(=O)c2ccccc2C#N)c2c1C(=O)NCC1(CCOCC1)C2` [Example 25, 3-(3-ethyl-4-oxo-spiro[6,8-dihydro-5H-pyrazolo[4,3-c]azepine-7,4′-tetrahydropyran]-1-yl)propyl 2-cyanobenzoate], for which the half-inhibitory concentration (IC50) is less than 0.1 µM.

With `CCc1nn(CCCOC(=O)c2ccc(C)c(C)c2)c2c1C(=O)NCC1(CCOCC1)C2` [Example 26, 3-(3-ethyl-4-oxo-spiro[6,8-dihydro-5H-pyrazolo[4,3-c]azepine-7,4′-tetrahydropyran]-1-yl)propyl 3,4-dimethylbenzoate], the half-inhibitory concentration (IC50) is less than 0.1 µM.

With `CCc1nn(CCCOC(=O)c2ccc(C)cc2C)c2c1C(=O)NCC1(CCOCC1)C2` [Example 27, 3-(3-ethyl-4-oxo-spiro[6,8-dihydro-5H-pyrazolo[4,3-c]azepine-7,4′-tetrahydropyran]-1-yl)propyl 2,4-dimethylbenzoate], the 50% inhibitory concentration (IC50) is less than 0.1 µM.

For the molecule `CCc1nn(CCCOC(=O)c2ccc(OC)cc2)c2c1C(=O)NCC1(CCOCC1)C2` [Example 28, 3-(3-ethyl-4-oxo-spiro[6,8-dihydro-5H-pyrazolo[4,3-c]azepine-7,4′-tetrahydropyran]-1-yl)propyl 4-methoxybenzoate], the half-maximal inhibitory concentration (IC50) is less than 0.1 µM.

For `CCc1nn(CCCOC(=O)c2cccc(OC)c2)c2c1C(=O)NCC1(CCOCC1)C2` [Example 29, 3-(3-ethyl-4-oxo-spiro[6,8-dihydro-5H-pyrazolo[4,3-c]azepine-7,4′-tetrahydropyran]-1-yl)propyl 3-methoxybenzoate], the concentration for half-maximal inhibition (IC50) was less than 0.1 µM.

In the case of `CCc1nn(CCCOC(=O)c2ccccc2OC)c2c1C(=O)NCC1(CCOCC1)C2` [Example 30, 3-(3-ethyl-4-oxo-spiro[6,8-dihydro-5H-pyrazolo[4,3-c]azepine-7,4′-tetrahydropyran]-1-yl)propyl 2-methoxybenzoate], the concentration for half-maximal inhibition (IC50) is less than 0.1 µM.

On to `CCc1nn(CCCOC(=O)CCS(C)(=O)=O)c2c1C(=O)NCC1(CCOCC1)C2` [Example 31, 3-(3-ethyl-4-oxo-spiro[6,8-dihydro-5H-pyrazolo[4,3-c]azepine-7,4′-tetrahydropyran]-1-yl)propyl 3-methylsulfonylpropanoate], for which the IC50 is greater than 0.5 µM.

For the molecule `CCc1nn(CCCOC(=O)c2ccc(C)c(F)c2)c2c1C(=O)NCC1(CCOCC1)C2` [Example 32, 3-(3-ethyl-4-oxo-spiro[6,8-dihydro-5H-pyrazolo[4,3-c]azepine-7,4′-tetrahydropyran]-1-yl)propyl 3-fluoro-4-methyl-benzoate], the concentration for half-maximal inhibition (IC50) is less than 0.1 µM.

As to `CCc1nn(CCCOC(=O)c2ccc(C)cc2F)c2c1C(=O)NCC1(CCOCC1)C2` [Example 33, 3-(3-ethyl-4-oxo-spiro[6,8-dihydro-5H-pyrazolo[4,3-c]azepine-7,4′-tetrahydropyran]-1-yl)propyl 2-fluoro-4-methyl-benzoate], the IC50 was less than 0.1 µM.

For `CCc1nn(CCCOC(=O)c2cc(F)ccc2C)c2c1C(=O)NCC1(CCOCC1)C2` [Example 34, 3-(3-ethyl-4-oxo-spiro[6,8-dihydro-5H-pyrazolo[4,3-c]azepine-7,4′-tetrahydropyran]-1-yl)propyl 5-fluoro-2-methyl-benzoate], the IC50 is less than 0.1 µM.

Turning to `CCc1nn(CCCOC(=O)c2ccc(F)c(C)c2)c2c1C(=O)NCC1(CCOCC1)C2` [Example 35, 3-(3-ethyl-4-oxo-spiro[6,8-dihydro-5H-pyrazolo[4,3-c]azepine-7,4′-tetrahydropyran]-1-yl)propyl 4-fluoro-3-methyl-benzoate], the IC50 is less than 0.1 µM.

Consider `CCc1nn(CCCOC(=O)c2cccc(F)c2C)c2c1C(=O)NCC1(CCOCC1)C2` [Example 36, 3-(3-ethyl-4-oxo-spiro[6,8-dihydro-5H-pyrazolo[4,3-c]azepine-7,4′-tetrahydropyran]-1-yl)propyl 3-fluoro-2-methyl-benzoate], for which the half-inhibitory concentration (IC50) was less than 0.1 µM.

Regarding `CCc1nn(CCCOC(=O)c2cc(C)ccc2F)c2c1C(=O)NCC1(CCOCC1)C2` [Example 37, 3-(3-ethyl-4-oxo-spiro[6,8-dihydro-5H-pyrazolo[4,3-c]azepine-7,4′-tetrahydropyran]-1-yl)propyl 2-fluoro-5-methyl-benzoate], the concentration for half-maximal inhibition (IC50) is less than 0.1 µM.

In the case of `CCc1nn(CCCOC(=O)c2ccc(F)cc2C)c2c1C(=O)NCC1(CCOCC1)C2` [Example 38, 3-(3-ethyl-4-oxo-spiro[6,8-dihydro-5H-pyrazolo[4,3-c]azepine-7,4′-tetrahydropyran]-1-yl)propyl 4-fluoro-2-methyl-benzoate], the IC50 is less than 0.1 µM.

Take `CCc1nn(CCCOC(=O)c2c(C)cccc2F)c2c1C(=O)NCC1(CCOCC1)C2` [Example 39, 3-(3-ethyl-4-oxo-spiro[6,8-dihydro-5H-pyrazolo[4,3-c]azepine-7,4′-tetrahydropyran]-1-yl)propyl 2-fluoro-6-methyl-benzoate]: the half-inhibitory concentration (IC50) is less than 0.1 µM.

For the molecule `CCc1nn(CCCOC(=O)c2ccccc2Cl)c2c1C(=O)NCC1(CCOCC1)C2` [Example 40, 3-(3-ethyl-4-oxo-spiro[6,8-dihydro-5H-pyrazolo[4,3-c]azepine-7,4′-tetrahydropyran]-1-yl)propyl 2-chlorobenzoate], the half-maximal inhibitory concentration (IC50) is less than 0.1 µM.

On to `CCc1nn(CCCOC(=O)c2cccc(Cl)c2)c2c1C(=O)NCC1(CCOCC1)C2` [Example 41, 3-(3-ethyl-4-oxo-spiro[6,8-dihydro-5H-pyrazolo[4,3-c]azepine-7,4′-tetrahydropyran]-1-yl)propyl 3-chlorobenzoate], for which the IC50 was less than 0.1 µM.

Turning to `CCc1nn(CCCOC(=O)c2ccc(Cl)cc2)c2c1C(=O)NCC1(CCOCC1)C2` [Example 42, 3-(3-ethyl-4-oxo-spiro[6,8-dihydro-5H-pyrazolo[4,3-c]azepine-7,4′-tetrahydropyran]-1-yl)propyl 4-chlorobenzoate], the concentration for half-maximal inhibition (IC50) was less than 0.1 µM.

Take `CCc1nn(CCCOC(=O)c2cc(F)cc(F)c2)c2c1C(=O)NCC1(CCOCC1)C2` [Example 43, 3-(3-ethyl-4-oxo-spiro[6,8-dihydro-5H-pyrazolo[4,3-c]azepine-7,4′-tetrahydropyran]-1-yl)propyl 3,5-difluorobenzoate]: the 50% inhibitory concentration (IC50) was less than 0.1 µM.
